# Assay results as given in patent US20250326769A1, “HETEROAROMATIC MACROCYCLIC ETHER CHEMOTHERAPEUTIC AGENTS” (Nuvalent, Inc., priority 2022, published 2025).
# Assays:
# Assay type in all cases: cell-based
# [1] = biological target: Ba/F3 EML4-ALK v1 I1171N (Homo sapiens (Human), UniProt Q9HC35+Q9UM73, I1171N); assay: Ba/F3 cell proliferation assay, EML4-ALK v1 I1171N; settings: for IC50: Ba/F3 stable cells, 72 hours, CellTiter-Glo; for ETV6-TRKB / EML4-ALK v1 I1171N: TRKB selectivity, ratio of Ba/F3 IC50 values
# Ba/F3 EML4-ALK v1 I1171N, sequence (Q9UM73 other isoform, or with tags, fused parts or gaps I1171N): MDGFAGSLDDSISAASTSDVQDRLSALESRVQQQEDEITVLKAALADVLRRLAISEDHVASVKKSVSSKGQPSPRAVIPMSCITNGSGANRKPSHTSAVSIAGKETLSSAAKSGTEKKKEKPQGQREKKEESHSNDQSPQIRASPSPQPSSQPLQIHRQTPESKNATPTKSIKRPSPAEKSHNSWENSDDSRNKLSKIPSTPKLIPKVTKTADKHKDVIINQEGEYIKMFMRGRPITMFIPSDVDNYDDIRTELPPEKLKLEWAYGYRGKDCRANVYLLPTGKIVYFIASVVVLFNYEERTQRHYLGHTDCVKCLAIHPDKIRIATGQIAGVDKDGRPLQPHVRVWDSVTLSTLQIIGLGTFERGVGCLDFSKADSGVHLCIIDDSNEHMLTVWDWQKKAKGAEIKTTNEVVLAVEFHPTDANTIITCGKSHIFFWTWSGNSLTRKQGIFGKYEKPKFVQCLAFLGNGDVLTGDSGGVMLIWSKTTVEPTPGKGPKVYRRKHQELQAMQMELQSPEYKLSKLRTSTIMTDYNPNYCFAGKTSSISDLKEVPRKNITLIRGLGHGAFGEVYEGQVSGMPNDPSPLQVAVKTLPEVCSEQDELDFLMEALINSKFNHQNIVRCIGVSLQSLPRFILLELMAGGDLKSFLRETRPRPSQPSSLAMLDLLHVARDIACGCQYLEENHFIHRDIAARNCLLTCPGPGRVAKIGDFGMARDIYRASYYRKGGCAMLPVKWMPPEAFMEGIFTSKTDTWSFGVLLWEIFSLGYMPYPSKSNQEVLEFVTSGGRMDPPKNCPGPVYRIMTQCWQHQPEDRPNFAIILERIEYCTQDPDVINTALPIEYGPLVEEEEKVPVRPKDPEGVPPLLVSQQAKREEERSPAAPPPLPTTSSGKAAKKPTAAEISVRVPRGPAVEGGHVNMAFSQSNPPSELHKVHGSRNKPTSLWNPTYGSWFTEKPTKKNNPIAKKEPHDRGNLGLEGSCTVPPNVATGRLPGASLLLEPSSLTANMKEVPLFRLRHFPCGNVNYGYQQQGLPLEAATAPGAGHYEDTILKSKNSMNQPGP
# From the text: (§1) Genes encoding EML4-ALK v1 (variant 1), EML4-ALK v1 G1202R, EML4-ALK v1 I1171IN, EML4-ALK v1 D1203N, EML4-ALK v1 I1171N/D1203N, and ETV6-TRKB were synthesized at GeneRay, cloned into the retroviral construct pMSCV-puro (Biovector), and packaged into retroviral particles. The virus was used to infect Ba/F3 cells (RIKEN) at multiplicity of infection=1 for 1 day. Infected cells were rescued in media (RPMI-1640 with 10% fetal bovine serum and 1% streptomycin and penicillin) supplemented with mouse IL-3 (10 ng/mL) for 2 days, and stable cell lines were selected by IL-3 withdrawal and puromycin (0.8 μg/mL) for 7 days. Monoclones were selected by single-cell dilution in IL-3-free medium containing puromycin (0.8 μg/mL). Transformation of desired genes was confirmed by Sanger sequencing and western blot using the following antibodies: ALK (CST #3633) and pan-TRK (Abcam #76291).
# (§2) Stable cells were plated in a 384-well plate. Test compounds were then added in a 3-fold dilution series and incubated for 72 hours. CellTiter-Glo reagent (Promega) was added. Luminescence was measured on a plate reader. Half-maximal inhibitory concentration (ICso) was calculated from percent inhibition and inhibitor concentration using four-parameter logistic regression. Compound potency can be interpreted by binning IC50 values: bin A for high potency, 0.1 nM IC50<50 nM; bin B for medium potency, 50 nM<IC50<500 nM; and bin C for low potency, IC50>500 nM. […] Exemplary data is given in Table 4 (nd is not determined).
# (§3) Ba/F3 proliferation is driven by the transduced oncogenes in the same way that cancer cell proliferation in humans is driven by the expression of equivalent oncogenes.
# (§4) TRKB selectivity was calculated by dividing a compound's TRKB potency by its primary target potency (e.g., ETV6-TRKB IC50/EML4-ALK v1 IC50). Compound selectivity can be interpreted by binning ratio values: bin A for very high selectivity, ratio≥30-fold; bin B for high selectivity, ratio≥10-fold but<30; bin C for moderate selectivity, ratio≥1 but<10; and bin D for low selectivity, ratio<1. […] (nd=not determined).
# [2] = biological target: Ba/F3 EML4-ALK v1 I1171N/D1203N (Homo sapiens (Human), UniProt Q9HC35+Q9UM73, D1203N/I1171N); assay: Ba/F3 cell proliferation assay, EML4-ALK v1 I1171N/D1203N; settings: for IC50: Ba/F3 stable cells, 72 hours, CellTiter-Glo; for ETV6-TRKB / EML4-ALK v1 I1171N/D1203N / Selectivity for Ba/F3 EML4-ALK v1 I1171N-D1203N IC50 over Ba/F3 ETV6-TRKB IC50: TRKB selectivity, ratio of Ba/F3 IC50 values; for Selectivity for Ba/F3 EML4-ALK v1 I1171N-D1203N IC50 over Ba/F3 ETV6-TRKB IC50: Table 6 bins
# Ba/F3 EML4-ALK v1 I1171N/D1203N, sequence (Q9UM73 other isoform, or with tags, fused parts or gaps I1171N/D1203N): as the sequence (Q9UM73 other isoform, or with tags, fused parts or gaps I1171N) above, with D642N counted along it
# From the text: as §1, §2, §3, §4
# Additional exemplified compounds were also tested against ALK-INDN and TRKB. The TRKB selectivity was calculated by dividing a compound's TRKB potency by its primary target potency (e.g., ETV6-TRKB IC50/EMIL4-ALK I1171N-D1203N v1 IC50). Compound selectivity can be interpreted by binning ratio values: bin AA for the selectivity with the ratio≥30-fold; bin BB for the selectivity with the ratio≥10-fold but<30; bin CC for the selectivity with the ratio≥5 but<10; bin DD for the selectivity with the ratio≥1 but<5; and bin EE for the selectivity with the ratio<1.
# [3] = biological target: Ba/F3 ETV6-TRKB (Homo sapiens, UniProt Q16620); assay: Ba/F3 cell proliferation assay, ETV6-TRKB; settings: Ba/F3 stable cells, 72 hours, CellTiter-Glo; read-out: ETV6-TRKB IC50
# Ba/F3 ETV6-TRKB, sequence (Q16620 32-822 limits assumed, change not shown): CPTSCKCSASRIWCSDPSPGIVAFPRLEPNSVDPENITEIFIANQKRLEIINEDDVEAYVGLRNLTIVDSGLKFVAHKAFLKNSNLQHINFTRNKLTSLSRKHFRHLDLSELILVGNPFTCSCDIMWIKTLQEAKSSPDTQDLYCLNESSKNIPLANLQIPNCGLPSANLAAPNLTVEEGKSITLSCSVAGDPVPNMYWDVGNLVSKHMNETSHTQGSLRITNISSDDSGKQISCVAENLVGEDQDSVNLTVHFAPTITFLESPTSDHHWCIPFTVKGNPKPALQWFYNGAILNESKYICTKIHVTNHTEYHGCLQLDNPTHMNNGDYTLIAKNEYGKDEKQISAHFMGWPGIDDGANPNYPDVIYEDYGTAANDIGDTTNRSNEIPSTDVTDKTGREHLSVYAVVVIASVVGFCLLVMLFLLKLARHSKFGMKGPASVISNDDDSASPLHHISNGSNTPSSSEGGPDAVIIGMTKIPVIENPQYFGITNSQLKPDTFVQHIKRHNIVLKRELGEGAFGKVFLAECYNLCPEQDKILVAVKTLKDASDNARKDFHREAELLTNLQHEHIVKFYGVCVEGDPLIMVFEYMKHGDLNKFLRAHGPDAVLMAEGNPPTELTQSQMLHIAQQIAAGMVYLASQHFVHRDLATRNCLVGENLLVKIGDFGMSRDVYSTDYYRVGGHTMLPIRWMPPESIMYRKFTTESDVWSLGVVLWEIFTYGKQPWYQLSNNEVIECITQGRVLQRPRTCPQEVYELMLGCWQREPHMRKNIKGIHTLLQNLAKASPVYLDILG
# From the text: as §1, §2, §3
Molecule,IC50 [1],IC50 [2],IC50 [3],ETV6-TRKB / EML4-ALK v1 I1171N [1],ETV6-TRKB / EML4-ALK v1 I1171N/D1203N [2],Selectivity for Ba/F3 EML4-ALK v1 I1171N-D1203N IC50 over Ba/F3 ETV6-TRKB IC50 [2]
"C[C@H]1Oc2cc(cnc2N)-c2c(cnn2CC2CC2)C(=O)c2cccnc2-c2ccc(F)cc21 [Example 29, (R)-23-amino-3-(cyclopropylmethyl)-17-fluoro-20-methyl-21-oxa-3,4, 12,24-tetraazapentacyclo[20.3.1.0^2,^6.0^8,^13.0^14,^19]hexacosa-1(25),2(6),4,8(13),9,11,14,16,18,22(26),23-undecaen-7-one]",> 500 nM,> 500 nM,> 500 nM,"B (bin B for high selectivity, ratio≥10-fold but<30)","B (bin B for high selectivity, ratio≥10-fold but<30)",BB (bin BB for the selectivity with the ratio≥10-fold but<30)
"Cc1ccc2c(n1)-c1ccc(F)cc1[C@@H](C)Oc1cc(cnc1N)-c1c(C#N)nn(C(=O)N(C)C)c1C2 [Example 72, N,N-dimethyl-(R)-23-amino-3-cyano-17-fluoro-11,20-dimethyl-21-oxa-4,5,12,24-tetraazapentacyclo[20.3.1.0^2,^6.0^8,^13.0^14,^19]hexacosa-1(25),2(6),3,8(13),9,11,14,16,18,22(26),23-undecaene-5-carboxamide]",50 to 500 nM,50 to 500 nM,> 500 nM,"A (bin A for very high selectivity, ratio≥30-fold)","B (bin B for high selectivity, ratio≥10-fold but<30)",–
"CCn1ncc2c1-c1cnc(N)c(c1)O[C@H](C)c1cc(F)ccc1-c1ncccc1O2 [Example 14, (R)-3-ethyl-17-fluoro-20-methyl-7,21-dioxa-3,4,12,24-tetraazapentacyclo[20.3.1.0^2,^6.0^8,^13.0^14,^19]hexacosa-1(25),2(6),4,8(13),9,11,14,16,18,22(26),23-undecaen-23-ylamine]",0.1 to 50 nM,50 to 500 nM,0.1 to 50 nM,–,–,–
"C[C@H]1Oc2cc(cnc2N)-c2c(C#N)nn(C)c2C(O)c2cn(C)nc2-c2c(F)cc(F)cc21 (stereo partly drawn) [Example 79, (19R)-22-amino-14,16-difluoro-7-hydroxy-5,10-dimethyl-19-methyl-20-oxa-4,5,10,11,23-pentaazapentacyclo[19.3.1.0^2,^6.0^8,^12.0^13,^18]pentacosa-1(24),2(6),3,8,11,13,15,17,21(25),22-decaene-3-carbonitrile]",–,50 to 500 nM,> 500 nM,–,"C (bin C for moderate selectivity, ratio≥1 but<10)",–
"Cc1cc2n(n1)-c1c(F)cc(F)cc1[C@@H](C)Oc1cc(cnc1N)-c1c(C#N)nn(C)c1C2=O [Example 69, (R)-22-amino-14,16-difluoro-5-methyl-10,19-dimethyl-7-oxo-20-oxa-4,5,11,12,23-pentaazapentacyclo[19.3.1.0^2,^6.0^8,^12.0^13,^18]pentacosa-1(24),2(6),3,8,10,13,15, 17,21(25),22-decaene-3-carbonitrile]",–,0.1 to 50 nM,50 to 500 nM,–,"B (bin B for high selectivity, ratio≥10-fold but<30)",–
"(R)-22-amino-14,16-difluoro-4-methyl-10,19-dimethyl-7-oxo-20-oxa-9-thia-4,5,11,23-tetraazapentacyclo[19.3.1.0^2,6.0^8,12.0^13,18]pentacosa-1(24),2,5,8(12),10,13,15,17,21(25),22-decaene-3-carbonitrile [Example 80]",–,0.1 to 50 nM,50 to 500 nM,–,"B (bin B for high selectivity, ratio≥10-fold but<30)",–
"C[C@H]1Oc2nc(cnc2N)-c2c(nn(C)c2C#N)C(=O)c2cccnc2-c2ccc(F)cc21 [Example 75, (R)-23-amino-17-fluoro-4-methyl-20-methyl-7-oxo-21-oxa-4,5,12,24,26-pentaazapentacyclo[20.3.1.0^2,^6.0^8,^13.0^14,^19]hexacosa-1(25),2,5,8(13),9,11,14,16,18,22(26),23-undecaene-3-carbonitrile]",–,0.1 to 50 nM,0.1 to 50 nM,–,"A (bin A for very high selectivity, ratio≥30-fold)",–
"Cc1cc2n(n1)-c1c(F)cc(F)cc1[C@@H](C)Oc1cc(cnc1N)-c1c(nn(C)c1C#N)C2=O [Example 68, (R)-22-amino-14,16-difluoro-4-methyl-10,19-dimethyl-7-oxo-20-oxa-4,5,11,12,23-pentaazapentacyclo[19.3.1.0^2,^6.0^8,^12.0^13,^18]pentacosa-1(24),2,5,8,10,13,15,17,21(25),22-decaene-3-carbonitrile]",–,50 to 500 nM,> 500 nM,–,–,–

# More lines, main results first:
IC50 [1],IC50 [2],IC50 [3],Molecule,ETV6-TRKB / EML4-ALK v1 I1171N [1],ETV6-TRKB / EML4-ALK v1 I1171N/D1203N [2],Selectivity for Ba/F3 EML4-ALK v1 I1171N-D1203N IC50 over Ba/F3 ETV6-TRKB IC50 [2]
0.1 to 50 nM,0.1 to 50 nM,50 to 500 nM,"C[C@H]1Oc2cc(cnc2N)-c2c(C3CCC3)nn(C(=O)N(C)C)c2Cc2cccnc2-c2ccc(F)cc21 [Example 57, (R)-5-(N,N-dimethylcarbamoyl)-3-cyclobutyl-17-fluoro-20-methyl-21-oxa-4,5,12,24-tetraazapentacyclo[20.3.1.0^2,^6.0^8,^13.0^14,^19]hexacosa-1(25),2(6),3,8(13),9,11,14,16,18,22(26),23-undecaen-23-ylamine]",–,–,–
0.1 to 50 nM,0.1 to 50 nM,0.1 to 50 nM,"CCc1c2c(nn1C)C(=O)c1cccnc1-c1ccc(F)cc1[C@@H](C)Oc1cc-2cnc1N [Example 54, (R)-23-amino-3-ethyl-17-fluoro-4-methyl-20-methyl-21-oxa-4,5,12,24-tetraazapentacyclo[20.3.1.0^2,^6.0^8,^13.0^14,^19]hexacosa-1(25),2,5,8,10,12,14,16,18,22(26),23-undecaen-7-one]","C (bin C for moderate selectivity, ratio≥1 but<10)","B (bin B for high selectivity, ratio≥10-fold but<30)",–
0.1 to 50 nM,0.1 to 50 nM,50 to 500 nM,"COCCn1nc2c(c1C#N)-c1cnc(N)c(c1)O[C@H](C)c1cc(F)ccc1-c1ncccc1C2=O [Example 52, (R)-23-amino-17-fluoro-4-(2-methoxyethyl)-20-methyl-7-oxo-21-oxa-4,5,12,24-tetraazapentacyclo[20.3.1.0^2,^6.0^8,^13.0^14,^19]hexacosa-1(25),2,5,8,10,12,14,16,18,22(26),23-undecaene-3-carbonitrile]","A (bin A for very high selectivity, ratio≥30-fold)","A (bin A for very high selectivity, ratio≥30-fold)",AA (bin AA for the selectivity with the ratio≥30-fold)
–,0.1 to 50 nM,50 to 500 nM,"C[C@H]1Oc2cc(cnc2N)-c2c(nn(C)c2C#N)Oc2cccnc2-c2c(F)cc(F)cc21 [Example 61, (R)-23-amino-15,17-difluoro-4-methyl-20-methyl-7,21-dioxa-4,5,12,24-tetraazapentacyclo[20.3.1.0^2,^6.0^8,^13.0^14,^19]hexacosa-1(25),2,5,8(13),9,11,14,16,18,22(26),23-undecaene-3-carbonitrile]",–,–,–
–,0.1 to 50 nM,50 to 500 nM,"Cc1cc2n(n1)-c1ccc(F)cc1[C@@H](C)Oc1cc(cnc1N)-c1c(c(C(=O)N(C)C)nn1C1CCC1)C2 [Example 67, N,N-dimethyl-(R)-22-amino-3-cyclobutyl-16-fluoro-10,19-dimethyl-20-oxa-3,4,11,12,23-pentaazapentacyclo[19.3.1.0^2,^6.0^8,^12.0^13,^18]pentacosa-1(24),2(6),4,8,10,13,15,17,21(25),22-decaene-5-carboxamide]",–,–,–
–,0.1 to 50 nM,> 500 nM,"C[C@H]1Oc2cc(cnc2N)-c2c(C#N)nn(C)c2C(=O)c2cccnc2-c2c(F)cc(F)cc21 [Example 22, (R)-23-amino-15,17-difluoro-5-methyl-20-methyl-7-oxo-21-oxa-4,5,12,24-tetraazapentacyclo[20.3.1.0^2,^6.0^8,^13.0^14,^19]hexacosa-1(25),2(6),3,8,10,12,14,16,18,22(26),23-undecaene-3-carbonitrile]",–,"A (bin A for very high selectivity, ratio≥30-fold)",AA (bin AA for the selectivity with the ratio≥30-fold)
